Data from patent US20210230179A1, “THIENO[2,3-B]PYRIDINE DERIVATIVES AS EPAC INHIBITORS AND THEIR PHARMACEUTICAL USES” (INSTITUT NATIONAL DE LA SANTE ET DE LA RECHERCHE MEDICALE …, priority 2018, published 2021).

Experiments:
Epac2 = target: T1, Epac2 (Homo sapiens, UniProt Q8WZA2); assay: Epac GEF activity assay (b-GDP dissociation from recombinant Rap1), Epac2; type: biochemical
T1 sequence (Q8WZA2 1-867 isoform Q8WZA2-3): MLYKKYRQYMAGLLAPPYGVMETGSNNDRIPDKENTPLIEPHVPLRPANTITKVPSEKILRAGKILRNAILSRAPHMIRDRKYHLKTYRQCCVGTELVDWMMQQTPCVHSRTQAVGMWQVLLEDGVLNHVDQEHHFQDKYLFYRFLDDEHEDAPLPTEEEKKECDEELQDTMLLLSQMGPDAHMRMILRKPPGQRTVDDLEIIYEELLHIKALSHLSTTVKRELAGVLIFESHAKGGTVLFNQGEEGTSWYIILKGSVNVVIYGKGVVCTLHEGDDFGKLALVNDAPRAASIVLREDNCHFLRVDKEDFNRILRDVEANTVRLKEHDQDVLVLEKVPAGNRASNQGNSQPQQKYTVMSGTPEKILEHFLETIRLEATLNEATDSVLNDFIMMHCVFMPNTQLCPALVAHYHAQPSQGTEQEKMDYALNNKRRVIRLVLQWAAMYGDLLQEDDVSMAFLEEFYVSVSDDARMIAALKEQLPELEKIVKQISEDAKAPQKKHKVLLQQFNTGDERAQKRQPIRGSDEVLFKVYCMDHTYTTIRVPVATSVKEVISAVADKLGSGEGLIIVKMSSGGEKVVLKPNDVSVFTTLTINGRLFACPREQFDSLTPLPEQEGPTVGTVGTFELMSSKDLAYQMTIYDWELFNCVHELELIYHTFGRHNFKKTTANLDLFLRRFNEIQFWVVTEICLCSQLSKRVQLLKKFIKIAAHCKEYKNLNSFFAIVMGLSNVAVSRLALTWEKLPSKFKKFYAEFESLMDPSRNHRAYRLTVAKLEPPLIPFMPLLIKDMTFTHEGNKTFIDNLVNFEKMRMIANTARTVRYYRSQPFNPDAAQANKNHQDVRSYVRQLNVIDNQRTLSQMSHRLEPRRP
From the text: FIGS. 4-8. […] Variations of relative fluorescence units (RFU) were studied as a function of time and fitted to single exponentials.

type II PKA holoenzyme = type II PKA holoenzyme activation; type: biochemical; conditions: 30 μM, presence and absence of 10 μM cAMP
Epac2B = target: T2, Epac2B (Homo sapiens, UniProt Q8WZA2); assay: Rap1-GTP in HEK293 cells transfected with Epac2B; type: cell-based; conditions: 20 μM, 30 min preincubation; S-220 50 μM, 10 min
T2 construct: expressed in transfected cells; host or cells: HEK293
T2 sequence (Q8WZA2 1-867 isoform Q8WZA2-3): T1 sequence (Q8WZA2 1-867 isoform Q8WZA2-3)
Experimental: (§1) FIGS. 9-13. Amounts of Rap1-GTP (n=5 in each group, mean±S.E.M) were determined in HEK293 cells transfected with Epac1 (FIGS. 9-11), Epac2A (FIG. 12) or Epac2B (FIG. 13). Cells were preincubated or not with AM-001 (FIGS. 9, 12, and 13), AM-002 (FIG. 10) or AM-003 (FIG. 11) (20 μM, 30 min) and were then treated or not with 8-CPT-AM (10 μM for Epac1 activation and 20 μM for Epac2A activation) or S-220 (50 μM for Epac2B activation) for 10 min. ESI-05 was used as positive control of Epac2A inhibition. Representative immunoblots are shown. […], *[…], ***p<0.001, ****p<0.0001, versus indicated values, one way ANOVA, Bonferroni comparison test.
(§2) Human Embryonic Kidney cells line (HEK293): HEK293 cells were maintained is in minimal essential medium with FBS (10%) and penicillin-streptomycin (1%). All media, sera, and antibiotics used in cell culture were purchased from Invitrogen.
The human Epac1/Epac2 expression vector was a gift from Dr J. L. Bos. Cells were transfected using Lipofectamine 2000 (Invitrogen) according to the manufacturer's instructions. HEK293 cells were maintained in MEM with FBS (Foetal Bovine Serum; 10%) and penicillin-streptomycin (1%). All media, sera and antibiotics used in cell culture were purchased from Invitrogen (Cergy Pontoise, France). […]

Epac1 = target: T3, Epac1 (Homo sapiens, UniProt O95398); assay: Rap1-GTP in HEK293 cells transfected with Epac1; type: cell-based; design: expressed in transfected cells; host or cells: HEK293; conditions: 20 μM, 30 min preincubation; 8-CPT-AM 10 μM, 10 min
T3 sequence (O95398 1-923): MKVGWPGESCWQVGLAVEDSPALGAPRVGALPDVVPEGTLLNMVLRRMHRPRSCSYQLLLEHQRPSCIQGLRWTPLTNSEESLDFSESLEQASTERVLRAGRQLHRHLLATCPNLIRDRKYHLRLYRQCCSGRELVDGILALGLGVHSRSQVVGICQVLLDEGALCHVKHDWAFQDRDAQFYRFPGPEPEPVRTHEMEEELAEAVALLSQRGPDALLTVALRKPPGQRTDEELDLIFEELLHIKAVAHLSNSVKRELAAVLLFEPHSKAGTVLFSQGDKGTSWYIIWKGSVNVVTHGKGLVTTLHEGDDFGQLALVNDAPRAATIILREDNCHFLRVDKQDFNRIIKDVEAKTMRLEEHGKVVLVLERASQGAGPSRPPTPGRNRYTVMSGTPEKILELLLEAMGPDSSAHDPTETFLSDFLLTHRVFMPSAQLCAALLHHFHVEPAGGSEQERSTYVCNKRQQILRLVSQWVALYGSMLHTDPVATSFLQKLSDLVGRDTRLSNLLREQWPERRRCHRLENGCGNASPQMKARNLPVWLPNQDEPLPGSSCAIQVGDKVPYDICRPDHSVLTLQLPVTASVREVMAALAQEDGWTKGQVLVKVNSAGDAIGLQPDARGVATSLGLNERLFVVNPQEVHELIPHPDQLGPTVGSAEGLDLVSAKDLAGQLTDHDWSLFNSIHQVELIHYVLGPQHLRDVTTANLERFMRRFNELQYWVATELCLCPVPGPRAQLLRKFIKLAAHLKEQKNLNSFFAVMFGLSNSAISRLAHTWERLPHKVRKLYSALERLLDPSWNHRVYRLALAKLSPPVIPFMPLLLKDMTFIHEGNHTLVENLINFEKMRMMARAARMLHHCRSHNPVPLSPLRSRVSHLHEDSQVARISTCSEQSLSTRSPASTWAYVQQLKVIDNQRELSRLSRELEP
Experimental: as §1, §2
The human Epac1/Epac2 expression vector was a gift from Dr J. L. Bos. Cells were transfected using Lipofectamine 2000 (Invitrogen) according to the manufacturer's instructions. HEK293 cells were maintained in MEM with FBS (Foetal Bovine Serum; 10%) and penicillin-streptomycin (1%). All media, sera and antibiotics used in cell culture were purchased from Invitrogen (Cergy Pontoise, France). Transient transfection experiments were performed with Lipofectamine 2000 (Invitrogen Life Technologies) in the presence of various amounts of plasmid constructs according to the manufacturer's instructions.
This cell line is commonly used for the evaluation of Epac pharmacological modulators on the cellular signaling of ectopically expressed Epac1 and Epac2 isoforms. […] Next, the inventors investigated the effect of 8-CPT-AM on the two Epac2 splice variants, Epac2A and Epac2B (FIGS. 12-13).

Nc1c(C(=O)Nc2ccc(F)cc2)sc2nc(-c3cccs3)cc(-c3ccccc3)c12 [AM-001, 3-amino-N-(4-fluorophenyl)-4-phenyl-6-(thiophen-2-yl)thieno[2,3-b]pyridine-2-carboxamide]
effect on Epac2 GEF activity (Epac2; 30 μM Sp-8-CPT, 20 μM inhibitor): no inhibitory effect | IC50 (Epac2; Sp-8-CPT at its EC50 for the isoform): > 1000 µM | IC50 (Epac2; saturating concentration of Sp-8-CPT): > 1000 µM | effect on type II PKA holoenzyme activation (type II PKA holoenzyme): did not influence | inhibition of the increase in Rap1-GTP induced by S-220 (Epac2B): ineffective | inhibition of Epac1-induced Rap1 activation (Epac1): prevented Epac1-induced Rap1 activation
